Experimental data taken from patent publication US9790230B2 (Hoffmann-La Roche Inc., priority 2015, dated 2017).
Read-outs that look alike come from different tables or passages of the source.

Legend:
[1] = target: mouse TAAR1 (Mus musculus (Mouse), UniProt Q923Y8); test: Radioligand binding assay on mouse TAAR1
[2] = target: rat TAAR1 (Rattus norvegicus (Rat), UniProt Q923Y9); test: Radioligand binding assay on rat TAAR1;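 note: membranes from HEK293 cells stably transfected with rat TAAR1, tritiated TAAR1 radioligand, 1 h incubation at 4 °C, nonspecific binding determined with excess unlabeled ligand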
Sequence of rat TAAR1 (Q923Y9 whole entry): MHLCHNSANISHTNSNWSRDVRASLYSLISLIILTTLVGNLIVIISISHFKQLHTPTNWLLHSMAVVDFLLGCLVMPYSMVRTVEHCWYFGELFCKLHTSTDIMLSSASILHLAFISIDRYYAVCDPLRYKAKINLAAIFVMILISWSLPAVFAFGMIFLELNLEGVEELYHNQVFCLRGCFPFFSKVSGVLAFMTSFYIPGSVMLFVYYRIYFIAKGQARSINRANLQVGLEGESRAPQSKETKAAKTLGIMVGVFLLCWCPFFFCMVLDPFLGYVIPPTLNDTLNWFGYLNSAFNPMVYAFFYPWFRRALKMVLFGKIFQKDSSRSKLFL
Protocol: Membrane Preparation and Radioligand Binding.
HEK-293 cells stably expressing rat TAAR1 were maintained at 37° C. and 5% CO2 in DMEM high glucose medium, containing fetal calf serum (10%, heat inactivated for 30 min at 56° C.), penicillin/streptomycin (1%), and 375 μg/ml geneticin (Gibco). Cells were released from culture flasks using trypsin/EDTA, harvested, washed twice with ice-cold PBS (without Ca^2+ and Mg^2+), pelleted at 1'000 rpm for 5 min at 4° C., frozen and stored at −80° C. Frozen pellets were suspended in 20 ml HEPES-NaOH (20 mM, pH 7.4) containing 10 mM EDTA and homogenized with a Polytron (PT 6000, Kinematica) at 14′000 rpm for 20 s. The homogenate was centrifuged at 48'000×g for 30 min at 4° C. Subsequently, the supernatant was removed and discarded, and the pellet resuspended in 20 ml HEPES-NaOH (20 mM, pH 7.4) containing 0.1 mM EDTA using the Polytron (20 s at 14'000 rpm). This procedure was repeated and the final pellet resuspended in HEPES-NaOH containing 0.1 mM EDTA and homogenized using the Polytron. Typically, aliquots of 2 ml membrane portions were stored at −80° C. With each new membrane batch the dissociation constant (Kd) was determined via a saturation curve. […] Nonspecific binding was defined as the amount of 3 [H]—(S)-4-[(ethyl-phenyl-amino)-methyl]-4,5-dihydro-oxazol-2-ylamine bound in the presence of 10 M unlabeled ligand. All compounds were tested at a broad range of concentrations (10 pM to 10 μM) in duplicates. […] The 96 deep well plates were incubated for 1 hr at 4° C. Incubations were terminated by rapid filtration through Unifilter-96 plates (Packard Instrument Company) and glass filters GF/C (Perkin Elmer) presoaked for 1 hr in polyethylenimine (0.3%) and washed 3 times with 1 ml of cold binding buffer. After addition of 45 μl of Microscint 40 (PerkinElmer) the Unifilter-96 plate was sealed and after 1 hr the radioactivity counted using a TopCount Microplate Scintillation Counter (Packard Instrument Company).

[3] = read-out: Ki (μM) mouse, mouse TAAR1, HEK-293 membranes, first value of cell mouse/rat
[4] = read-out: Ki (μM) rat, rat TAAR1, HEK-293 membranes, second value of cell mouse/rat

Sequence of mouse TAAR1 (Q923Y8 whole entry): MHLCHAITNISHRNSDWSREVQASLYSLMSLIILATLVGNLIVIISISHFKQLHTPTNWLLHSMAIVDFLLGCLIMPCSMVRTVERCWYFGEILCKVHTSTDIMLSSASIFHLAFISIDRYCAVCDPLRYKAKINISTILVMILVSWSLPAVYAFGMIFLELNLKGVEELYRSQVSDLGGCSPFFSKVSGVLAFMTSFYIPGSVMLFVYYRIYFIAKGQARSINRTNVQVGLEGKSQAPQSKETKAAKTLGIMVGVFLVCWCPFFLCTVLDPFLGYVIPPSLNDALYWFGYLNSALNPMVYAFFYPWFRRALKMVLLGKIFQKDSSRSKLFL

SMILES	Ki [1]	Ki [2]	Ki [1, 3]	Ki [2, 4]
CC(C)c1cc(C(=O)Nc2ccc([C@@H]3O[C@H]4CN[C@@H]3C4)cc2)[nH]n1 [Example 75, 3-Isopropyl-N-[4-[(1R,3S,4R)-2-oxa-5-azabicyclo[2.2.1]heptan-3-yl]phenyl]-1H-pyrazole-5-carboxamide]	0.0099 µM	0.239 µM		
CCc1n[nH]c(C(=O)Nc2ccc([C@@H]3O[C@H]4CN[C@@H]3C4)cc2)c1Cl [Example 76, 4-Chloro-3-ethyl-N-[4-[(1R,3S,4R)-2-oxa-5-azabicyclo[2.2.1]heptan-3-yl]phenyl]-1H-pyrazole-5-carboxamide]	0.0047 µM	0.0842 µM		
O=C(Nc1ccc([C@@H]2O[C@H]3CN[C@@H]2C3)cc1)c1[nH]nc(C2CC2)c1F [Example 77, 3-Cyclopropyl-4-fluoro-N-[4-[(1R,3S,4R)-2-oxa-5-azabicyclo[2.2.1]heptan-3-yl]phenyl]-11H-pyrazole-5-carboxamide]			0.0048 µM	0.137 µM
CCCc1n[nH]c(C(=O)Nc2ccc([C@@H]3O[C@H]4CN[C@@H]3C4)cc2)c1F [Example 78, 4-Fluoro-N-[4-[(1R,3S,4R)-2-oxa-5-azabicyclo[2.2.1]heptan-3-yl]phenyl]-3-propyl-1H-pyrazole-5-carboxamide]	0.0042 µM	0.103 µM		
FC(F)(F)COc1ccnc(Nc2ccc([C@H]3O[C@@H]4CN[C@H]3C4)cc2)n1 [Example 79, N-[4-[(1S,3R,4S)-2-Oxa-5-azabicyclo[2.2.1]heptan-3-yl]phenyl]-4-(2,2,2-trifluoroethoxy)pyrimidin-2-amine]	0.006 µM	0.0841 µM		
FC(F)(F)COc1nccc(Nc2ccc([C@H]3O[C@@H]4CN[C@H]3C4)cc2)n1 [Example 80, N-[4-[(1S,3R,4S)-2-Oxa-5-azabicyclo[2.2.1]heptan-3-yl]phenyl]-2-(2,2,2-trifluoroethoxy)pyrimidin-4-amine]	0.0077 µM	1.08 µM		
O=C(Nc1ccc([C@@H]2O[C@H]3CN[C@@H]2C3)cc1)c1ccnc(C(F)(F)F)n1 [Example 81, N-[4-[(1R,3S,4R)-2-Oxa-5-azabicyclo[2.2.1]heptan-3-yl]phenyl]-2-(trifluoromethyl)pyrimidine-4-carboxamide]	0.0271 µM	0.189 µM		
O=C(Nc1ccc([C@@H]2O[C@H]3CN[C@@H]2C3)cc1)c1[nH]nc(C2CC2)c1Cl [Example 82, 4-Chloro-3-cyclopropyl-N-[4-[(1R,3S,4R)-2-oxa-5-azabicyclo[2.2.1]heptan-3-yl]phenyl]-11H-pyrazole-5-carboxamide]			0.0035 µM	0.0339 µM
O=C(Nc1ccc(Cl)cc1)c1ccc([C@@H]2O[C@H]3CN[C@@H]2C3)cc1 [Example 85]	0.0164 µM	1.08 µM		
CCOc1ccc(NC(=O)c2ccc([C@@H]3O[C@H]4CN[C@@H]3C4)cc2)cc1 [Example 88, N-(4-Ethoxyphenyl)-4-[(1R,3S,4R)-2-oxa-5-azabicyclo[2.2.1]heptan-3-yl]benzamide]	0.0255 µM	> 1.45 µM		
O=C(COCCC(F)(F)F)Nc1ccc([C@@H]2O[C@H]3CN[C@@H]2C3)cc1 [Example 90, N-[4-[(1R,3S,4R)-2-Oxa-5-azabicyclo[2.2.1]heptan-3-yl]phenyl]-2-(3,3,3-trifluoropropoxy)acetamide]	0.015 µM	0.398 µM		
CCCCc1n[nH]c(C(=O)Nc2ccc([C@@H]3O[C@H]4CN[C@@H]3C4)cc2)c1F [Example 92, 3-Butyl-4-fluoro-N-[4-[(1R,3S,4R)-2-oxa-5-azabicyclo[2.2.1]heptan-3-yl]phenyl]-111H-pyrazole-5-carboxamide]			0.0033 µM	0.0879 µM
O=C(Nc1ccc(Cl)nc1)c1ccc([C@@H]2O[C@H]3CN[C@@H]2C3)cc1 [Example 94, N-(6-Chloro-3-pyridyl)-4-[(1R,3S,4R)-2-oxa-5-azabicyclo[2.2.1]heptan-3-yl]benzamide]	0.0251 µM	> 1.45 µM		
CCOc1ccc(NC(=O)c2ccc([C@@H]3O[C@H]4CN[C@@H]3C4)cc2)cn1 [Example 95, N-(6-Ethoxy-3-pyridyl)-4-[(1R,3S,4R)-2-oxa-5-azabicyclo[2.2.1]heptan-3-yl]benzamide]	0.0613 µM	> 1.45 µM		
O=C(NCc1ccc(C(F)(F)F)cc1)c1ccc([C@@H]2O[C@H]3CN[C@@H]2C3)cc1 [Example 96, 4-[(1R,3S,4R)-2-Oxa-5-azabicyclo[2.2.1]heptan-3-yl]-N-[[4-(trifluoromethyl)phenyl]methyl]benzamide]	0.0477 µM	> 1.45 µM		

Continued, in another order:

Ki [1]	Ki [2]	SMILES	Ki [1, 3]	Ki [2, 4]
0.0097 µM	0.19 µM	FC(F)(F)COc1nccc(Nc2ccc([C@@H]3O[C@H]4CN[C@@H]3C4)cc2)n1 [Example 83, N-[4-[(1R,3S,4R)-2-Oxa-5-azabicyclo[2.2.1]heptan-3-yl]phenyl]-2-(2,2,2-trifluoroethoxy)pyrimidin-4-amine]		
0.0172 µM	> 15 µM	O=C(CCC(F)(F)F)Nc1ccc([C@H]2O[C@@H]3CN[C@H]2C3)cc1 [Example 84, 4,4,4-Trifluoro-N-[4-[(1S,3R,4S)-2-oxa-5-azabicyclo[2.2.1]heptan-3-yl]phenyl]butanamide]		
0.0102 µM	0.809 µM	O=C(Nc1ccc(Br)cc1)c1ccc([C@@H]2O[C@H]3CN[C@@H]2C3)cc1 [Example 86, N-(4-Bromophenyl)-4-[(1R,3S,4R)-2-oxa-5-azabicyclo[2.2.1]heptan-3-yl]benzamide]		
0.145 µM	> 1.45 µM	O=C(Nc1ccc(F)cc1)c1ccc([C@@H]2O[C@H]3CN[C@@H]2C3)cc1 [Example 87, N-(4-Fluorophenyl)-4-[(1R,3S,4R)-2-oxa-5-azabicyclo[2.2.1]heptan-3-yl]benzamide]		
0.028 µM	0.0026 µM	CC(C)n1nc(OCC(F)(F)F)cc1C(=O)Nc1ccc([C@@H]2O[C@H]3CN[C@@H]2C3)cc1 [Example 89, 2-Isopropyl-N-[4-[(1R,3S,4R)-2-oxa-5-azabicyclo[2.2.1]heptan-3-yl]phenyl]-5-(2,2,2-trifluoroethoxy)pyrazole-3-carboxamide]		
0.031 µM	> 1.45 µM	O=C(CCC(F)(F)F)Nc1ccc([C@@H]2O[C@H]3CN[C@@H]2C3)cc1 [Example 91, 4,4,4-Trifluoro-N-[4-[(1R,3S,4R)-2-oxa-5-azabicyclo[2.2.1]heptan-3-yl]phenyl]butanamide]		
0.0042 µM	0.0803 µM	CCCCc1cc(C(=O)Nc2ccc([C@@H]3O[C@H]4CN[C@@H]3C4)cc2)[nH]n1 [Example 93, 3-Butyl-N-[4-[(1R,3S,4R)-2-oxa-5-azabicyclo[2.2.1]heptan-3-yl]phenyl]-1H-pyrazole-5-carboxamide]		
0.0511 µM	> 1.45 µM	O=C(NCc1ccc(Cl)cc1)c1ccc([C@@H]2O[C@H]3CN[C@@H]2C3)cc1 [Example 97, N-[(4-Chlorophenyl)methyl]-4-[(1R,3S,4R)-2-oxa-5-azabicyclo[2.2.1]heptan-3-yl]benzamide]		
0.0068 µM	0.0745 µM	CCOc1n[nH]c(C(=O)Nc2ccc([C@@H]3O[C@H]4CN[C@@H]3C4)cc2)c1Cl [Example 98, 4-Chloro-3-ethoxy-N-[4-[(1R,3S,4R)-2-oxa-5-azabicyclo[2.2.1]heptan-3-yl]phenyl]-1H-pyrazole-5-carboxamide]		
0.0035 µM	0.127 µM	CCc1n[nH]c(C(=O)Nc2ccc([C@@H]3O[C@H]4CN[C@@H]3C4)cc2)c1Br [Example 99, 4-Bromo-3-ethyl-N-[4-[(1R,3S,4R)-2-oxa-5-azabicyclo[2.2.1]heptan-3-yl]phenyl]-1H-pyrazole-5-carboxamide]		
